# According to patent US20100035984A1, “Use of an antibacterial compound which is derived from alliaceae, as a natural additive in animal feed” (DMC Research Center, S.L., priority 2006, published 2010):
# “And” between values parts separate entries of the source, which are not always exact repeats. Identical values can stand only once. Marks after values point to notes of the source that are not given here.
# Tests used:
# Format in all cases: cell-based
# [1] = system: total anaerobes, total aerobes, enterobacteria, coliform bacteria, bacteroides, clostridia, lactobacilli and bifidobacteria; assay: In vitro fermentation of pig feces inoculum, counts of all bacterial groups (Example 1); settings: 50 to 2000 mg/L in culture medium, 24 hours in vitro fermentation, inocula from piglet feces
# Procedure: FIG. 1 is a graph relating to Example 1 (study of the porcine digestive microbial composition) showing the effect of different concentrations of the compound PTSO after 24 hours of in vitro fermentation on the total anaerobic bacteria, total aerobic bacteria, enterobacteria, coliform bacteria, bacteroides, clostridia, lactobacilli and bifidobacteria count present in pig feces. The vertical axis of the graph determines the log 10(cfu/g feces) and the horizontal axis determines the bacterial group.
# The described assays are carried out using complete bacterial inocula obtained from feces of piglets in post-weaning stage.
# lactobacilli = assay: In vitro fermentation of pig feces, lactobacilli count (Example 2); settings: 200 mg/L, 24 hours
# Procedure: (§1) The mean values affected by different indexes indicate significant differences (p<0.05). The vertical axis of the graph determines the log 10(cfu/g feces) and the horizontal axis determines the compound. The described assays are carried out using complete bacterial inocula obtained from feces of piglets in post-weaning stage. Two of the compounds (referenced as PTS and as PTSO) are assayed in a lower dose range (50-400 mg/L).
# bifidobacteria = assay: In vitro fermentation of pig feces, bifidobacteria count (Example 2); settings: 200 mg/L, 24 hours
# Procedure: as §1
# [2] = system: microbiota of the ruminal inoculum (ruminal fluid of goats); assay: In vitro ruminal degradation of experimental diets (Example 3); settings: for DDM (degradability of dry matter), mean / DOM (degradability of organic matter), mean: 48 hours
# Procedure: The Effect of Different Doses of the Compounds Object of Study on the Ruminal Degradation of Two Different Diets the Composition of which is in Table 1 is Studied The diets consist of alfalfa hay (standard maintenance diet for ruminant animals) or of a mixture of 50% alfalfa hay and a commercial concentrate (standard lactation diet for ruminant animals). In vitro incubation is performed using ruminal fluid of goats as inoculum.
# [3] = system: ruminal fermentation (methane-producing microorganisms); assay: Production of gas by in vitro fermentation of the diets (Example 4)
# Procedure: The effect of different doses of the compounds object of study on the production of gas promoted by in vitro fermentation for 24 and 48 hours of the diets the composition of which is included in Table 1 is studied.
# [4] = Alfalfa hay + concentrate, 10 ppm
# [5] = Alfalfa hay + concentrate, 25 ppm
# [6] = Alfalfa hay + concentrate, 50 ppm
# [7] = Alfalfa hay + concentrate, 300 ppm
# [8] = Alfalfa hay + concentrate, 750 ppm
# [9] = Alfalfa hay + concentrate, 1000 ppm
# [10] = Alfalfa hay + concentrate, 2000 ppm
# [11] = diet D1, 48 hours, 10 ppm, replicates
# [12] = diet D1, 48 hours, 25 ppm, replicates
# [13] = diet D1, 48 hours, concentration 50, replicates
# [14] = diet D1, 48 hours, concentration 300, replicates
# [15] = diet D1, 48 hours, concentration 750, replicates
# [16] = diet D1, 48 hours, concentration 1000, replicates
# [17] = diet D2, 48 hours, 10 ppm, replicates
# [18] = diet D2, 48 hours, 25 ppm, replicates
# [19] = diet D2, 48 hours, concentration 50, replicates
# [20] = diet D2, 48 hours, concentration 300, replicates
# [21] = diet D2, 48 hours, concentration 750, replicates
# [22] = diet D2, 48 hours, concentration 1000, replicates
# [23] = diet D2, 48 hours, concentration 2000, replicates
substance,measurement,setting,value
propyl propylthiosulfonate [PTSO],growth of the bacterial groups studied,[1],inhibited the growth of all the bacterial groups studied
same,lactobacilli logarithmic reduction in the population,lactobacilli,approximately 50%
same,bifidobacteria logarithmic reduction in the population,bifidobacteria,approximately 50%
same,"DDM (degradability of dry matter), mean",[2]; [4],63.4^a
same,"DOM (degradability of organic matter), mean",[2]; [4],63.8^a
same,"DDM (degradability of dry matter), mean",[2]; [5],62.5^a
same,"DOM (degradability of organic matter), mean",[2]; [5],60.6^a
same,"DDM (degradability of dry matter), mean",[2]; [6],61.1^a
same,"DOM (degradability of organic matter), mean",[2]; [6],63.5^a
same,"DDM (degradability of dry matter), mean",[2]; [7],45.2^b
same,"DOM (degradability of organic matter), mean",[2]; [7],44.7^b
same,"DDM (degradability of dry matter), mean",[2]; [8],38.1^c
same,"DOM (degradability of organic matter), mean",[2]; [8],37.4^c
same,"DDM (degradability of dry matter), mean",[2]; [9],37.2^c
same,"DOM (degradability of organic matter), mean",[2]; [9],36.0^c
same,"DDM (degradability of dry matter), mean",[2]; [10],36.7^c
same,"DOM (degradability of organic matter), mean",[2]; [10],32.3^c
same,"DDM (degradability of dry matter), mean","[2]; Alfalfa hay, 10 ppm",55.5^a
same,"DOM (degradability of organic matter), mean","[2]; Alfalfa hay, 10 ppm",48.4^ab
same,"DDM (degradability of dry matter), mean","[2]; Alfalfa hay, 25 ppm",54.5^a
same,"DOM (degradability of organic matter), mean","[2]; Alfalfa hay, 25 ppm",53.2^ab
same,"DDM (degradability of dry matter), mean","[2]; Alfalfa hay, 50 ppm",45.6^b
same,"DOM (degradability of organic matter), mean","[2]; Alfalfa hay, 50 ppm",45.9^b
same,"DDM (degradability of dry matter), mean","[2]; Alfalfa hay, 300 ppm",36.2^c
same,"DOM (degradability of organic matter), mean","[2]; Alfalfa hay, 300 ppm",35.5^c
same,"DDM (degradability of dry matter), mean","[2]; Alfalfa hay, 750 ppm",30.4^d
same,"DOM (degradability of organic matter), mean","[2]; Alfalfa hay, 750 ppm",29.9^c
same,"DDM (degradability of dry matter), mean","[2]; Alfalfa hay, 1000 ppm",34.5^c
same,"DOM (degradability of organic matter), mean","[2]; Alfalfa hay, 1000 ppm",33.7^c
same,"DDM (degradability of dry matter), mean","[2]; Alfalfa hay, 2000 ppm",30.3^d
same,"DOM (degradability of organic matter), mean","[2]; Alfalfa hay, 2000 ppm",29.0^c
same,Mean DDM,"[2]; Table 3: diet D1, 48 hours, 2000 ppm",31.6%
same,DDM (degradation of dry matter),"[2]; Table 3: diet D1, 48 hours, 2000 ppm, replicates",30.9% and 30.2% and 32.0% and 31.4% and 32.2% and 32.7%
same,DDM,"[2]; Table 4: diet D1, 48 hours, concentration 2000, replicates",31.9% and 28.7%
same,effect on degradation of dry matter and organic matter,"[2]; diet D1, 2000 ppm, 48 hours in vitro incubation",higher reduction
same,DDM,[2]; [11],54.9% and 56.1%
same,DOM,[2]; [11],45.0% and 51.8%
same,DDM,[2]; [12],54.1% and 55.0%
same,DOM,[2]; [12],52.9% and 53.6%
same,DDM,[2]; [13],45.5% and 45.7%
same,DOM,[2]; [13],46.0% and 45.7%
same,DDM,[2]; [14],36.6% and 35.8%
same,DOM,[2]; [14],36.2% and 34.9%
same,DDM,[2]; [15],31.0% and 29.9%
same,DOM,[2]; [15],30.2% and 29.6%
same,DDM,[2]; [16],33.4% and 35.6%
same,DOM,[2]; [16],32.6% and 34.7%
same,DOM,"[2]; diet D1, 48 hours, concentration 2000, replicates",30.6% and 27.5%
same,DDM,[2]; [17],63.1% and 63.7%
same,DOM,[2]; [17],63.2% and 64.3%
same,DDM,[2]; [18],62.4% and 62.7%
same,DOM,[2]; [18],58.4% and 62.8%
same,DDM,[2]; [19],61.1% and 63.9%
same,DOM,[2]; [19],62.2% and 64.8%
same,DDM,[2]; [20],44.4% and 46.0%
same,DOM,[2]; [20],43.7% and 45.6%
same,DDM,[2]; [21],39.9% and 36.3%
same,DOM,[2]; [21],39.0% and 35.8%
same,DDM,[2]; [22],35.9% and 38.4%
same,DOM,[2]; [22],34.8% and 37.3%
same,DDM,[2]; [23],37.1% and 36.3%
same,DOM,[2]; [23],32.7% and 32.0%
same,"inhibitory effect on production of fermentation gas, dependence on dose",[3],dose-dependent
same,"inhibitory effect on production of fermentation gas, dependence on time",[3]; 24 and 48 hours,time-dependent
same,doses at which the inhibitory effect on production of fermentation gas is observed,[3]; diet D2,10 ppm
